DBAASP
Converted amounts (≈) assume the structure as drawn.

Tests used:
Experiment in all cases: ≥ marks a high value that may be exact or a test limit, other limits are often not marked, values filed in µg/mL are converted to µM
[1] = test system: Pseudomonas aeruginosa H1001
[2] = test system: Staphylococcus aureus ATCC BAA-1556
[3] = test system: Escherichia coli ATCC 25922
Escherichia coli UB1005 = test system: Escherichia coli UB1005
[4] = test system: Salmonella enterica subsp. enterica serovar Typhimurium ATCC 14028
[5] = test system: Staphylococcus epidermidis ATCC 12228
[6] = test system: Enterococcus faecalis ATCC 29212
[7] = test system: Salmonella enterica subsp. enterica serovar Pullorum C79-13
[8] = test system: Staphylococcus aureus ATCC 29213
Escherichia coli 078 = test system: Escherichia coli 078
[9] = test system: Staphylococcus aureus ATCC 25923
Escherichia coli K88 = test system: Escherichia coli K88
[10] = test system: Bacillus subtilis CMCC 63501
Escherichia coli K99 = test system: Escherichia coli K99
[11] = test system: Salmonella enterica subsp. enterica serovar Typhimurium C77-31
Pseudomonas aeruginosa = test system: Pseudomonas aeruginosa
Staphylococcus aureus MR = test system: Staphylococcus aureus MR
Staphylococcus aureus = test system: Staphylococcus aureus
Escherichia coli = test system: Escherichia coli
[12] = test system: Pseudomonas syringae pv. syringae EPS 94
[13] = test system: Erwinia amylovora PMV 6076
[14] = test system: Pseudomonas aeruginosa ATCC 10145
[15] = test system: Pseudomonas aeruginosa PAO1
[16] = test system: Salmonella enterica serovar Typhimurium
Acinetobacter baumannii = test system: Acinetobacter baumannii
[17] = test system: Staphylococcus epidermidis
Candida albicans = test system: Candida albicans
[18] = test system: Pseudomonas aeruginosa H103

In the case of `CC[C@H](C)[C@H](NC(=O)[C@H](C)NC(=O)[C@@H](N)CC(N)=O)C(=O)N[C@@H](CCCCN)C(=O)N[C@@H](CC(C)C)C(=O)N[C@@H](CC(C)C)C(=O)N[C@@H](CS)C(=O)N[C@@H](CCCN=C(N)N)C(=O)N[C@H](C(=O)N[C@@H](Cc1cnc[nH]1)C(=O)O)C(C)C` [NAIKLLCRVH], the MIC [1] is reported as ≥ 85.7 µM.
`NCCCC[C@H](NC(=O)[C@H](CCCN=C(N)N)NC(=O)[C@H](Cc1c[nH]c2ccccc12)NC(=O)[C@H](CCCCN)NC(=O)[C@H](Cc1c[nH]c2ccccc12)NC(=O)[C@H](Cc1c[nH]c2ccccc12)NC(=O)[C@H](Cc1cnc[nH]1)NC(=O)[C@H](Cc1ccccc1)NC(=O)[C@@H](N)CCCCN)C(N)=O` [KFHWWKWRK] was tested, and the MIC [1] was ≥ 178 µM.
`CC[C@H](C)[C@H](NC(=O)[C@H](C)NC(=O)[C@@H](NC(=O)[C@H](CCCCN)NC(=O)[C@H](CCCCN)NC(=O)[C@H](Cc1cnc[nH]1)NC(=O)[C@@H](NC(=O)[C@H](CCCN=C(N)N)NC(=O)[C@H](CS)NC(=O)[C@@H](N)CC(C)C)C(C)C)[C@@H](C)CC)C(=O)O` [LCRVHKKIAI] was tested, and the MIC [1] was ≥ 169 µM.
With `CC(C)C[C@H](NC(=O)[C@H](CC(C)C)NC(=O)[C@H](CCCCN)NC(=O)[C@H](CC(C)C)NC(=O)[C@H](CC(C)C)NC(=O)[C@H](Cc1c[nH]c2ccccc12)NC(=O)[C@@H](N)CCCCN)C(N)=O` [KWLLKLL] the MIC [2] was ≥ 100 µM.
In the case of `CC(C)C[C@H](NC(=O)[C@H](CCCCN)NC(=O)[C@H](CC(C)C)NC(=O)[C@H](CC(C)C)NC(=O)[C@H](CC(C)C)NC(=O)[C@H](CCCCN)NC(=O)[C@@H](N)CC(C)C)C(N)=O` [LKLLLKL], the MIC [2] is reported as ≥ 100 µM.
For `CC[C@H](C)[C@H](NC(=O)[C@H](Cc1c[nH]c2ccccc12)NC(=O)[C@H](CC(C)C)NC(=O)[C@H](CCCN=C(N)N)NC(=O)[C@H](Cc1c[nH]c2ccccc12)NC(=O)[C@@H](N)CCCCN)C(=O)N[C@@H](CCCN=C(N)N)C(=O)N[C@@H](Cc1c[nH]c2ccccc12)C(=O)N[C@@H](CC(C)C)C(N)=O` [KWRLWIRWL], the MIC [2] was 12.5 µM (≈ 16.9 µg/mL).
In the case of `CC[C@H](C)[C@H](NC(=O)[C@H](Cc1c[nH]c2ccccc12)NC(=O)[C@H](CCCCN)NC(=O)[C@H](CC(C)C)NC(=O)[C@@H](NC(=O)[C@H](Cc1c[nH]c2ccccc12)NC(=O)CNC(=O)[C@@H](NC(=O)[C@H](CCCCN)NC(=O)[C@H](CCCCN)NC(=O)[C@H](CC(C)C)NC(=O)[C@@H](N)CCCN=C(N)N)[C@@H](C)CC)C(C)C)C(N)=O` [RLKKIGWVLKWI], the MIC [3] is reported as 2 µM (≈ 3.08 µg/mL), the MIC (Escherichia coli UB1005) is reported as 1 µM (≈ 1.54 µg/mL) and the MIC [4] is reported as 4 µM (≈ 6.16 µg/mL). The MIC [5] was 4 µM (≈ 6.16 µg/mL), the MIC [6] was 4 µM (≈ 6.16 µg/mL) and the MIC [7] was 1 µM (≈ 1.54 µg/mL). For the same compound, the MIC [8] was 4 µM (≈ 6.16 µg/mL), the MIC (Escherichia coli 078) was 4 µM (≈ 6.16 µg/mL) and the MIC [9] was 4 µM (≈ 6.16 µg/mL). For the same compound, the MIC (Escherichia coli K88) was 1 µM (≈ 1.54 µg/mL), the MIC [10] was 2 µM (≈ 3.08 µg/mL) and the MIC (Escherichia coli K99) was 4 µM (≈ 6.16 µg/mL). For the same compound, the MIC [11] was 4 µM (≈ 6.16 µg/mL).
With `CC[C@H](C)[C@H](NC(=O)[C@H](C)NC(=O)[C@H](CC(C)C)NC(=O)[C@H](CCCN=C(N)N)NC(=O)[C@H](CC(C)C)NC(=O)[C@H](C)N)C(=O)N[C@@H](CCCN=C(N)N)C(=O)N[C@@H](CCCCN)C(=O)N[C@@H](CCCN=C(N)N)C(N)=O` [ALRLAIRKR] the MIC (Pseudomonas aeruginosa) was 13.7 µM (≈ 15 µg/mL), the MIC (Staphylococcus aureus MR) was ≥ 43.8 µM and the MIC (Staphylococcus aureus) was 4.56 µM (≈ 5 µg/mL). For the same compound, the MIC (Escherichia coli) was 3.65 µM (≈ 4 µg/mL).
With `CC[C@H](C)[C@H](NC(=O)[C@H](CCCCN)NC(=O)[C@H](CCCCN)NC(=O)[C@H](Cc1ccccc1)NC(=O)[C@H](CC(C)C)NC(=O)[C@H](CCCCN)NC(=O)[C@H](CCCCN)NC(=O)[C@@H](N)CO)C(=O)N[C@@H](CC(C)C)C(=O)N[C@@H](CCCCN)C(=O)N[C@@H](Cc1ccc(O)cc1)C(=O)N[C@@H](CC(C)C)C(=O)N[C@@H](C)C(=O)NCC(=O)N1CCC[C@H]1C(=O)N[C@@H](C)C(=O)N[C@@H](CCCCN)C(=O)N[C@@H](Cc1ccccc1)C(=O)N[C@@H](CC(C)C)C(=O)N[C@@H](Cc1cnc[nH]1)C(=O)N[C@@H](CO)C(=O)N[C@@H](C)C(=O)N[C@@H](CCCCN)C(=O)O` [SKKLFKKILKYLAGPAKFLHSAK] the MIC [12] was 3.54 µM (≈ 9.25 µg/mL) and the MIC [13] was 3.54 µM (≈ 9.25 µg/mL).
`CC[C@H](C)[C@H](NC(=O)[C@H](C)NC(=O)[C@H](CC(C)C)NC(=O)[C@H](CC(C)C)NC(=O)[C@H](Cc1c[nH]c2ccccc12)NC(=O)[C@H](C)N)C(=O)N[C@@H](CCCN=C(N)N)C(=O)N[C@@H](CCCCN)C(=O)N[C@@H](CCCN=C(N)N)C(N)=O` [AWLLAIRKR] gave an MIC (Pseudomonas aeruginosa) of 3.55 µM (≈ 4 µg/mL), an MIC (Staphylococcus aureus MR) of 22.2 µM (≈ 25 µg/mL) and an MIC (Staphylococcus aureus) of 2.66 µM (≈ 3 µg/mL). For the same compound, the MIC (Escherichia coli) was 4.44 µM (≈ 5 µg/mL).
`CC[C@H](C)[C@H](NC(=O)[C@H](Cc1c[nH]c2ccccc12)NC(=O)[C@H](CCCN=C(N)N)NC(=O)[C@H](CCCN=C(N)N)NC(=O)[C@H](Cc1c[nH]c2ccccc12)NC(=O)[C@@H](N)CCCCN)C(=O)N[C@@H](C)C(=O)N[C@@H](Cc1c[nH]c2ccccc12)C(=O)N[C@@H](CC(C)C)C(N)=O` [KWRRWIAWL] was tested, and the MIC [2] was 12.5 µM (≈ 16.4 µg/mL).
`C[C@H](NC(=O)[C@H](C)NC(=O)[C@H](CCCCN)NC(=O)[C@H](CCCCN)NC(=O)[C@H](C)NC(=O)[C@H](Cc1ccccc1)NC(=O)[C@H](CCCCN)NC(=O)[C@H](CCCCN)NC(=O)[C@H](C)NC(=O)[C@H](C)NC(=O)[C@H](CCCCN)NC(=O)[C@H](CCCCN)NC(=O)[C@H](C)NC(=O)[C@H](Cc1ccccc1)NC(=O)[C@@H](N)CCCCN)C(=O)N[C@@H](CCCCN)C(=O)O` [KFAKKAAKKFAKKAAK] was tested, and the MIC [14] was ≥ 142 µM.
With `CC[C@H](C)[C@H](NC(=O)[C@H](CCCN=C(N)N)NC(=O)[C@H](CC(C)C)NC(=O)[C@H](CCC(N)=O)NC(=O)[C@@H](N)C(C)C)C(=O)N[C@@H](CCCN=C(N)N)C(=O)N[C@H](C(=O)N[C@@H](CS)C(=O)N[C@H](C(=O)N[C@H](C(=O)N[C@@H](CCCN=C(N)N)C(=O)N[C@@H](CCCN=C(N)N)C(=O)O)[C@@H](C)CC)C(C)C)C(C)C` [VQLRIRVCVIRR] the MIC [3] was 10.6 µM (≈ 16 µg/mL), the MIC (Pseudomonas aeruginosa) was 21.2 µM (≈ 32 µg/mL) and the MIC [15] was 21.2 µM (≈ 32 µg/mL). It also gave an MIC [16] of 10.6 µM (≈ 16 µg/mL), an MIC (Acinetobacter baumannii) of 30 µM (≈ 45.3 µg/mL) and an MIC (Staphylococcus aureus) of 15 µM (≈ 22.6 µg/mL). For the same compound, the MIC [9] was 10.6 µM (≈ 16 µg/mL) and the MIC (Escherichia coli) was > 84.7 µM.
`CC(C)C[C@H](NC(=O)[C@H](CCCN=C(N)N)NC(=O)[C@H](Cc1c[nH]c2ccccc12)NC(=O)[C@H](CC(C)C)NC(=O)[C@H](Cc1c[nH]c2ccccc12)NC(=O)[C@H](Cc1c[nH]c2ccccc12)NC(=O)[C@H](CC(C)C)NC(=O)[C@H](Cc1c[nH]c2ccccc12)NC(=O)[C@@H](N)Cc1c[nH]c2ccccc12)C(N)=O` [WWLWWLWRL] was tested, and the MIC [2] was 3.12 µM (≈ 4.51 µg/mL).
In the case of `CC[C@H](C)[C@H](NC(=O)[C@H](Cc1c[nH]c2ccccc12)NC(=O)[C@H](CCCN=C(N)N)NC(=O)[C@H](CCCN=C(N)N)NC(=O)[C@H](Cc1c[nH]c2ccccc12)NC(=O)[C@@H](N)CCCCN)C(N)=O` [KWRRWI], the MIC [2] is reported as ≥ 100 µM.
With `CC(C)[C@H](NC(=O)[C@H](CCCN=C(N)N)NC(=O)[C@H](Cc1c[nH]c2ccccc12)NC(=O)[C@H](Cc1c[nH]c2ccccc12)NC(=O)[C@H](Cc1c[nH]c2ccccc12)NC(=O)[C@H](CCCN=C(N)N)NC(=O)[C@H](Cc1c[nH]c2ccccc12)NC(=O)[C@@H](N)CCCN=C(N)N)C(=O)N[C@@H](Cc1ccc(O)cc1)C(=O)O` [RWRWWWRVY] the MIC [17] was 1.6 µM (≈ 2.39 µg/mL), the MIC (Escherichia coli UB1005) was 1.6 µM (≈ 2.39 µg/mL) and the MIC [16] was 3.3 µM (≈ 4.93 µg/mL). The MIC [6] was 3.3 µM (≈ 4.93 µg/mL), the MIC (Candida albicans) was 13.2 µM (≈ 19.7 µg/mL) and the MIC [18] was 13.2 µM (≈ 19.7 µg/mL). It also gave an MIC [9] of 3.3 µM (≈ 4.93 µg/mL).
